The experiment addresses influenza PA endonuclease (PAN) (Influenza A virus, UniProt C3W5S0, DEL52-63/E64G). It counts as biochemical, influenza A (A/California/04/2009) H1N1.

For `Cc1cc(=O)c(O)c(C(=O)O)o1` [Compound 1, 3-Hydroxy-6-methyl-4-oxo-4H-pyran-2-carboxylic acid], the “Change in activity with presence or absence of excess metal ions” value was “no change”.
Take `Cc1cc(=O)c(O)c(C(=O)O)[nH]1` [Compound 17, 3-Hydroxy-6-methyl-4-oxo-1,4-dihydropyridine-2-carboxylic acid]: the “Change in activity with presence or absence of excess metal ions” value is “no change”.

The values are drawn from article PMC6249039 (Journal of medicinal chemistry, 2018).
